Where two headings read alike, the source gives them in different places.
Target: T1, human Nav1.1 (Homo sapiens, UniProt P35498)
T1 construct: host or cells: HEK293
Experiment: Amplification of Nav1.1-derived voltage-gated sodium current (Nav1.1 current), automated patch clamp (Test 1)
Assay type: cell-based
Conditions: for activation at 1 µM / activation at 10 µM: read-out: Nav1.1 current amplification rate (%); for activation at 10 µM: HEK293, Concentration for evaluation 10 μM
In short: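 Compound-induced change in ramp-evoked sodium current peak and AUC was expressed as 100×post/pre ratio minus 100. Recordings used automated patch clamp in voltage-clamp mode on a stable human Nav1.1 HEK293 line, including only cells above 500 pA. Compounds were delivered in extracellular fluid containing 1% DMSO.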

[1] = Concentration for evaluation 10 μM, HEK293 cell line stably expressing human Nav1.1
[2] = Concentration for evaluation 50 μM, HEK293 cell line stably expressing human Nav1.1
[3] = Concentration for evaluation 1 μM, HEK293 cell line stably expressing human Nav1.1
[4] = Concentration for evaluation 3 μM, HEK293 cell line stably expressing human Nav1.1
[5] = HEK293, concentration for evaluation 1 μM, HEK293 stably expressing human Nav1.1
[6] = concentration for evaluation 1 μM, HEK293 stably expressing human Nav1.1
[7] = HEK293, Concentration for evaluation 1 μM, HEK293 cell line stably expressing human Nav1.1
[8] = HEK293 cell line stably expressing human Nav1.1

SMILES: COc1cc(=O)n(CC(=O)N2CCN(c3cncc(F)c3)CC2)nc1C1=CCC(C)(C)CC1 [Example 490]
- Nav1.1 current amplification rate (%) [1]: 469%

SMILES: CC1CC=C(c2ccc(=O)n(CC(=O)N3CCN(c4ccn(C)n4)CC3)n2)CC1 (stereo not shown) [Example 412]
- Nav1.1 current amplification rate (%) [2]: 36%

SMILES: CN(c1ncc2cnn(CC(=O)Nc3ccn4ncnc4c3)c2n1)C1CC1 [Example 794]
- Nav1.1 current amplification rate (%) [3]: 27%

SMILES: CN(CC1(C)CC1)c1cnc2cnn(CC(=O)Nc3ccn4ncnc4c3)c2n1 [Example 639]
- Nav1.1 current amplification rate (%) [3]: 100%

SMILES: CN(c1cnc2cnn(CC(=O)N3CCc4cc(C#N)ccc43)c2n1)C1CCC1 [Example 691]
- Nav1.1 current amplification rate (%) [4]: 11%

SMILES: Cc1cc(NC(=O)Cn2ncc3cnc(N(C)C4CC4)nc32)cc2ncnn12 [Example 836]
- activation at 1 µM [5]: 19%

SMILES: CN(c1ncc2cnn(CC(=O)Nc3ccc4ncnn4c3)c2n1)C1CCC1 [Example 817]
- Nav1.1 current amplification rate (%) [6]: 21%

SMILES: N#Cc1ccc(NC(=O)Cn2nc(N3CCC4(CC3)CC4)ccc2=O)cc1 [Example 17]
- Nav1.1 current amplification rate (%) [1]: 212%

SMILES: CN(CC(F)F)c1cnc2cnn(CC(=O)Nc3ccn4ncnc4c3)c2n1 [Example 627]
- Nav1.1 current amplification rate (%) [2]: 60%

SMILES: CC1CC=C(c2ccc(=O)n(CC(=O)N3CCN(C4CCOCC4)CC3)n2)CC1 (stereo not shown) [Example 411]
- Nav1.1 current amplification rate (%) [2]: 18%

SMILES: CC1CC=C(c2ccc(=O)n(CC(=O)N3CCc4c3ccnc4C3=CCOCC3)n2)CC1 (stereo not shown) [Example 296]
- Nav1.1 current amplification rate (%) [3]: 87%

SMILES: CC1CC=C(c2ccc(=O)n(CC(=O)N3CCN(Cc4cccnc4)CC3)n2)CC1 (stereo not shown) [Example 393]
- Nav1.1 current amplification rate (%) [1]: 19%

SMILES: Cc1cc(NC(=O)Cn2nc(N3CCC(C)CC3)ccc2=O)cc2ncoc12 [Example 96]
- Nav1.1 current amplification rate (%) [1]: 105%

SMILES: CC1CC=C(c2ccc(=O)n(CC(=O)N3CCN(c4ccccc4)CC3)n2)CC1 (stereo not shown) [Example 258]
- Nav1.1 current amplification rate (%) [4]: 79%

SMILES: CC1CC=C(c2ccc(=O)n(CC(=O)N3CCc4c(C=C5CCNCC5)cccc43)n2)CC1 (stereo not shown) [Example 293]
- Nav1.1 current amplification rate (%) [2]: 55%

SMILES: Cc1cc2ncnn2cc1NC(=O)Cn1nc(C2=CCC(C)CC2)ccc1=O (stereo not shown) [Example 351]
- Nav1.1 current amplification rate (%) [2]: 98%

SMILES: COC1CCN(c2nccc3c2CCN3C(=O)Cn2nc(C3=CCC(C)CC3)ccc2=O)CC1 (stereo not shown) [Example 309]
- Nav1.1 current amplification rate (%) [3]: 71%

SMILES: O=C(Cn1ncc2cnc(N3CCOCC3)nc21)Nc1ccn2ncnc2c1 [Example 767]
- Nav1.1 current amplification rate (%) [1]: 60%

SMILES: CC1CC=C(c2cnc3cnn(CC(=O)N4CCN(c5cccnc5)CC4)c3n2)CC1 (stereo not shown) [Example 740]
- activation at 1 µM [7]: 91%

SMILES: Cc1cn2ccc(NC(=O)Cn3ncc4ncc(N(C)C5CCC5)nc43)cc2n1 [Example 686]
- Nav1.1 current amplification rate (%) [3]: 13%

SMILES: O=C(Cn1ncc2ncc(C3=CCC4(CC3)CC4)nc21)Nc1ccc2ncnn2c1 [Example 656]
- Nav1.1 current amplification rate (%) [3]: 70%

SMILES: CCC1(C)CCN(c2ccc(=O)n(CC(=O)Nc3ccc(C#N)cc3)n2)CC1 [Example 28]
- Nav1.1 current amplification rate (%) [1]: 158%

SMILES: O=C(Cn1ncc2cnc(N3CCC4(CCC4)C3)nc21)Nc1ccn2ncnc2c1 [Example 765]
- Nav1.1 current amplification rate (%) [3]: 25%

SMILES: CC1CC2(C1)CN(c1cnc3cnn(CC(=O)Nc4ccc(C#N)nc4)c3n1)C2 [Example 749]
- activation at 10 µM [8]: 63%

SMILES: COc1cc(-c2cc(Cl)cs2)nn(CC(=O)N2CCc3c(N4CCOCC4)cccc32)c1=O [Example 479]
- Nav1.1 current amplification rate (%) [1]: 420%

SMILES: CN(c1cnc2cnn(CC(=O)NCCc3ccccc3F)c2n1)C1CC2(CC2)C1 [Example 750]
- activation at 10 µM [8]: 27%

SMILES: CC1CC=C(c2ccc(=O)n(CC(=O)N3CCc4c(N5CCOCC5)cccc43)n2)CC1 (stereo not shown) [Example 245]
- Nav1.1 current amplification rate (%) [3]: 393%

SMILES: CN(c1cnc2cnn(CC(=O)Nc3cnc4ncccc4c3)c2n1)C1CC1 [Example 723]
- Nav1.1 current amplification rate (%) [3]: 95%

SMILES: O=C(Cn1nc(C2=CCCC2)ccc1=O)Nc1ccn2ccnc2c1 [Example 457]
- Nav1.1 current amplification rate (%) [2]: 29%

SMILES: Cc1nc2cc(NC(=O)Cn3nc(N4CCC(C)CC4)ccc3=O)ccc2o1 [Example 69]
- Nav1.1 current amplification rate (%) [1]: 137%

SMILES: O=C(Cn1ncc2cnc(C3=CCC(F)(F)CC3)nc21)Nc1ccc2ncnn2c1 [Example 812]
- Nav1.1 current amplification rate (%) [6]: 13%

SMILES: N#Cc1ccc(NC(=O)Cn2nc(N3CCCC4(CC4)C3)ccc2=O)cc1 [Example 20]
- Nav1.1 current amplification rate (%) [1]: 152%

SMILES: CN(CC1CC1)c1ncc2cnn(CC(=O)Nc3ccn4ncnc4c3)c2n1 [Example 800]
- Nav1.1 current amplification rate (%) [6]: 55%

SMILES: Cc1nc2cc(NC(=O)Cn3nc(N4CCCCC4)ccc3=O)ccc2o1 [Example 118]
- activation at 10 µM [8]: 7%

SMILES: O=C(Cn1nc(C2=CCC(F)(F)CC2)ccc1=O)N1CCN(c2cncc(F)c2)CC1 [Example 489]
- Nav1.1 current amplification rate (%) [1]: 29%

SMILES: CC1CC=C(c2ccc(=O)n(CC(=O)Nc3cc4nccn4cn3)n2)CC1 (stereo not shown) [Example 328]
- Nav1.1 current amplification rate (%) [4]: 58%

SMILES: O=C(Cn1ncc2ccc(-c3ccc(F)cc3F)nc21)Nc1ccc2ocnc2c1 [Example 884]
- activation at 1 µM [5]: 34%

SMILES: CC1CC=C(c2ccc(=O)n(CC(=O)N3CCC(c4ccncc4)CC3)n2)CC1 (stereo not shown) [Example 259]
- Nav1.1 current amplification rate (%) [1]: 71%

SMILES: CC1CC=C(c2ccc(=O)n(CC(=O)N3CC4(C3)CN(c3cccnc3)C4)n2)CC1 (racemic) [Example 424]
- Nav1.1 current amplification rate (%) [1]: 40%

SMILES: N#Cc1ccc(NC(=O)Cn2nc(N3CCCCCC3)ccc2=O)cc1 [Example 11]
- Nav1.1 current amplification rate (%) [1]: 205%

SMILES: O=C(Cn1nc(N2CCCCC2)ccc1=O)Nc1ccnc(C(F)(F)F)c1 [Example 113]
- activation at 10 µM [8]: 30%

SMILES: CC1CC=C(c2ccc(=O)n(CC(=O)N3CCN(c4cncc(F)c4)CC3)n2)C1 (stereo not shown) [Example 484]
- Nav1.1 current amplification rate (%) [1]: 224%

SMILES: Cc1cc(NC(=O)Cn2ncc3ncc(N(C)C4CCCC4)nc32)cn2ncnc12 [Example 677]
- Nav1.1 current amplification rate (%) [3]: 35%

SMILES: CC1(C)CC=C(c2cnc3cnn(CC(=O)Nc4ccn5ccnc5c4)c3n2)CC1 [Example 737]
- activation at 1 µM [7]: 249%

SMILES: COc1ncc(C2=CCN(C(=O)Cn3nc(C4=CCC(C)CC4)ccc3=O)CC2)cn1 (stereo not shown) [Example 400]
- Nav1.1 current amplification rate (%) [1]: 238%

SMILES: C[C@H]1CC[C@@H](c2ccc(=O)n(CC(=O)Nc3ccc(C#N)cc3)n2)CC1 [Example 44]
- Nav1.1 current amplification rate (%) [1]: 59%

SMILES: CC1CC=C(c2ccc(=O)n(CC(=O)Nc3ccnc(C#N)c3)n2)CC1 (stereo not shown) [Example 362]
- Nav1.1 current amplification rate (%) [3]: 133%

SMILES: CC1CCN(c2ccc(=O)n(CC(=O)Nc3ccc4nccn4c3)n2)CC1 [Example 90]
- Nav1.1 current amplification rate (%) [1]: 31%

SMILES: O=C(Cn1ncc2ncc(N3CCC4(CCC4)CC3)nc21)N1CCN(c2cccnc2)CC1 [Example 736]
- activation at 1 µM [7]: 13%

SMILES: CC1CC=C(c2ccc(=O)n(CC(=O)Nc3ccc4cnnn4c3)n2)CC1 (stereo not shown) [Example 345]
- Nav1.1 current amplification rate (%) [3]: 232%

SMILES: CC1CC=C(c2ccc(=O)n(CC(=O)N3CCc4c(C5CN(C(=O)CO)C5)cccc43)n2)CC1 (stereo not shown) [Example 321]
- Nav1.1 current amplification rate (%) [4]: 478%

SMILES: CC1CC=C(c2ccc(=O)n(CC(=O)N3CCc4c(CNC5CCOC5)cccc43)n2)CC1 (stereo not shown) [Example 316]
- Nav1.1 current amplification rate (%) [3]: 81%

SMILES: N#Cc1ccc(NC(=O)Cn2ncc3ccc(N4CCC5(CC5)C(F)(F)C4)nc32)cn1 [Example 890]
- activation at 1 µM [5]: 68%

SMILES: CC1CC=C(c2ccc(=O)n(CC(=O)N3CCc4c(-c5ccnn5C)cccc43)n2)CC1 (stereo not shown) [Example 251]
- Nav1.1 current amplification rate (%) [4]: 307%

SMILES: CC1CCN(c2ccc(=O)n(CC(=O)Nc3ccn4ccnc4c3)n2)CC1 [Example 72]
- Nav1.1 current amplification rate (%) [1]: 119%

SMILES: COc1cc(=O)n(CC(=O)N2CCc3c(N4CCOCC4)cccc32)nc1C1=CCC(C)(C)CC1 [Example 470]
- Nav1.1 current amplification rate (%) [1]: 522%

SMILES: COc1ccc(NC(=O)Cn2ncc3cnc(N4CCC5(CC5)C(F)(F)C4)nc32)cn1 [Example 825]
- Nav1.1 current amplification rate (%) [6]: 30%

SMILES: O=C(Cn1nc(C2=CCC3(CC2)CC3(F)F)ccc1=O)N1CCc2c(N3CCOCC3)cccc21 (stereo not shown) [Example 478]
- Nav1.1 current amplification rate (%) [4]: 345%

SMILES: N#Cc1ccc(NC(=O)Cn2nc(N3CCC(F)(F)CC3)ccc2=O)cc1 [Example 5]
- Nav1.1 current amplification rate (%) [1]: 6%

SMILES: CC1CC=C(c2ccc(=O)n(CC(=O)N3CCc4c(C5CNC5)cccc43)n2)CC1 (stereo not shown) [Example 299]
- Nav1.1 current amplification rate (%) [4]: 6%

SMILES: CC1CC=C(c2ccc(=O)n(CC(=O)N3CCc4c(-c5ccn(C)n5)cccc43)n2)CC1 (stereo not shown) [Example 252]
- Nav1.1 current amplification rate (%) [4]: 254%

SMILES: Cc1ccc(-c2ccc(=O)n(CC(=O)N3CCc4ccccc43)n2)cc1 [Example 157]
- Nav1.1 current amplification rate (%) [2]: 29%

SMILES: COc1ccc(NC(=O)Cn2nc(N3CCC(C)CC3)ccc2=O)cn1 [Example 62]
- Nav1.1 current amplification rate (%) [1]: 13%

SMILES: CC1CCN(c2ccc(=O)n(CC(=O)Nc3ccc4c(c3)ncn4C)n2)CC1 [Example 98]
- Nav1.1 current amplification rate (%) [1]: 15%
